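Where inhibition never reached the appropriate level, the endpoint shown equals the highest concentration tested. Otherwise, values were interpolated linearly from a five-concentration, 48-hour dose response in 96-well plates. GI50 marks 50% less growth.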 Calls of active or inactive are those of the source. Rule as the data show it: active = GI50 up to about 1.1 µM and inactive = higher.
Key:
Experiment in all cases: NCI anticancer screen, dose series, 48 h
Hs-578T = system: Hs-578T
U-251 = system: U-251
SF-539 = system: SF-539
NCI-H226 = system: NCI-H226
Malme-3M = system: Malme-3M
NCI-H23 = system: NCI-H23
A498 = system: A498
RPMI-8226 = system: RPMI-8226
RXF 393 = system: RXF 393
MDA-MB-435 = system: MDA-MB-435
786-0 = system: 786-0
KM12 = system: KM12
HCC 2998 = system: HCC 2998
MDA-MB-231 = system: MDA-MB-231
ACHN = system: ACHN
IGROV-1 = system: IGROV-1
PC-3 = system: PC-3
OVCAR-5 = system: OVCAR-5
SNB-19 = system: SNB-19
HL-60 = system: HL-60

CC(NC(=O)C(N)CC(=O)O)NC(=O)N1CCCC1 (stereo unspecified)
GI50 (Hs-578T): > 100 µM (inactive)
GI50 (U-251): > 100 µM (inactive)
GI50 (SF-539): > 100 µM (inactive)
GI50 (NCI-H226): > 100 µM (inactive)
GI50 (Malme-3M): > 100 µM (inactive)
GI50 (NCI-H23): > 100 µM (inactive)
GI50 (A498): > 100 µM (inactive)
GI50 (RPMI-8226): > 100 µM (inactive)
GI50 (RXF 393): > 100 µM (inactive)
GI50 (MDA-MB-435): > 100 µM (inactive)
GI50 (786-0): > 100 µM (inactive)
GI50 (KM12): > 100 µM (inactive)
GI50 (HCC 2998): > 100 µM (inactive)
GI50 (MDA-MB-231): > 100 µM (inactive)
GI50 (ACHN): > 100 µM (inactive)
GI50 (IGROV-1): > 100 µM (inactive)
GI50 (PC-3): > 100 µM (inactive)
GI50 (OVCAR-5): > 100 µM (inactive)
GI50 (SNB-19): > 100 µM (inactive)

CC[C@@]1(O)C(=O)OCc2c1cc1n(c2=O)Cc2c-1nc1ccccc1c2/C=N\NC(=O)C(C)N (stereo partly specified)
GI50 (Hs-578T): 11.9 µM (inactive)
GI50 (U-251): < 0.0195 µM (active)
GI50 (SF-539): < 0.0116 µM (active)
GI50 (NCI-H226): 0.33 µM (active)
GI50 (Malme-3M): 1.64 µM (inactive)
GI50 (NCI-H23): < 0.0214 µM (active)
GI50 (A498): 0.111 µM (active)
GI50 (RXF 393): 1.04 µM (active)
GI50 (MDA-MB-435): 1.61 µM (inactive)
GI50 (786-0): 0.069 µM (active)
GI50 (HL-60): < 0.028 µM (active)
GI50 (KM12): 5.36 µM (inactive)
GI50 (HCC 2998): 0.332 µM (active)
GI50 (MDA-MB-231): 27 µM (inactive)
GI50 (ACHN): < 0.0216 µM (active)
GI50 (IGROV-1): 1.13 µM (inactive)
GI50 (PC-3): 1.91 µM (inactive)
GI50 (OVCAR-5): 6.71 µM (inactive)
GI50 (SNB-19): 0.0233 µM (active)

CCC1c2[nH]c3ccccc3c2C[C@H]2C(=O)N3CCC[C@H]3C(=O)N12 (stereo partly specified)
GI50 (Hs-578T): > 100 µM (inactive)
GI50 (U-251): 92.5 µM (inactive)
GI50 (NCI-H226): > 100 µM (inactive)
GI50 (Malme-3M): 42.5 µM (inactive)
GI50 (NCI-H23): > 100 µM (inactive)
GI50 (A498): > 100 µM (inactive)
GI50 (RPMI-8226): 50.9 µM (inactive)
GI50 (RXF 393): > 100 µM (inactive)
GI50 (MDA-MB-435): > 100 µM (inactive)
GI50 (786-0): > 100 µM (inactive)
GI50 (HL-60): > 100 µM (inactive)
GI50 (KM12): 71.1 µM (inactive)
GI50 (HCC 2998): > 100 µM (inactive)
GI50 (MDA-MB-231): > 100 µM (inactive)
GI50 (ACHN): > 100 µM (inactive)
GI50 (IGROV-1): > 100 µM (inactive)
GI50 (PC-3): 37.4 µM (inactive)
GI50 (OVCAR-5): > 100 µM (inactive)
GI50 (SNB-19): > 100 µM (inactive)

O=[N+]([O-])c1ccc(/C=C\c2ccc3c(c2)OCO3)c([N+](=O)[O-])c1
GI50 (Hs-578T): 16.8 µM (inactive)
GI50 (U-251): 14.2 µM (inactive)
GI50 (SF-539): 20 µM (inactive)
GI50 (Malme-3M): 19.7 µM (inactive)
GI50 (NCI-H23): 21.7 µM (inactive)
GI50 (A498): 19 µM (inactive)
GI50 (RPMI-8226): 4.39 µM (inactive)
GI50 (RXF 393): 0.0316 µM (active)
GI50 (MDA-MB-435): 8.43 µM (inactive)
GI50 (786-0): 16.9 µM (inactive)
GI50 (HL-60): 17.4 µM (inactive)
GI50 (KM12): 15.3 µM (inactive)
GI50 (HCC 2998): 14.5 µM (inactive)
GI50 (MDA-MB-231): 17.2 µM (inactive)
GI50 (ACHN): 16.6 µM (inactive)
GI50 (IGROV-1): 12.2 µM (inactive)
GI50 (PC-3): 24.8 µM (inactive)
GI50 (OVCAR-5): 18.7 µM (inactive)
GI50 (SNB-19): 17.3 µM (inactive)

COc1ccc2[nH]c3c(c2c1)CC(=O)N1CCC[C@H](C1)CC31OCCCO1
GI50 (Hs-578T): 86.7 µM (inactive)
GI50 (U-251): > 100 µM (inactive)
GI50 (NCI-H226): > 100 µM (inactive)
GI50 (Malme-3M): > 100 µM (inactive)
GI50 (NCI-H23): > 100 µM (inactive)
GI50 (A498): > 100 µM (inactive)
GI50 (RPMI-8226): > 100 µM (inactive)
GI50 (RXF 393): 44.5 µM (inactive)
GI50 (MDA-MB-435): > 100 µM (inactive)
GI50 (786-0): > 100 µM (inactive)
GI50 (KM12): > 100 µM (inactive)
GI50 (HCC 2998): > 100 µM (inactive)
GI50 (MDA-MB-231): > 100 µM (inactive)
GI50 (ACHN): > 100 µM (inactive)
GI50 (IGROV-1): 92.7 µM (inactive)
GI50 (PC-3): > 100 µM (inactive)
GI50 (OVCAR-5): > 100 µM (inactive)
GI50 (SNB-19): > 100 µM (inactive)

C[C@H](OC(=O)/C=C/c1ccc(O)c(O)c1)[C@H](C)OC(=O)/C=C/c1ccc(O)c(O)c1
GI50 (Hs-578T): 6.65 µM (inactive)
GI50 (U-251): 10.8 µM (inactive)
GI50 (SF-539): 9.48 µM (inactive)
GI50 (Malme-3M): 14.7 µM (inactive)
GI50 (NCI-H23): 4.29 µM (inactive)
GI50 (A498): 17.1 µM (inactive)
GI50 (RPMI-8226): 9.59 µM (inactive)
GI50 (RXF 393): 6.87 µM (inactive)
GI50 (MDA-MB-435): 4.84 µM (inactive)
GI50 (786-0): 4.73 µM (inactive)
GI50 (KM12): 5.25 µM (inactive)
GI50 (HCC 2998): 11.5 µM (inactive)
GI50 (MDA-MB-231): 10.9 µM (inactive)
GI50 (ACHN): 6.11 µM (inactive)
GI50 (IGROV-1): 5.2 µM (inactive)
GI50 (PC-3): 13.1 µM (inactive)
GI50 (OVCAR-5): 14 µM (inactive)
GI50 (SNB-19): 7.93 µM (inactive)

O=Cc1coc2ccccc2c1=O
GI50 (Hs-578T): 18.2 µM (inactive)
GI50 (U-251): 21.3 µM (inactive)
GI50 (SF-539): 16.1 µM (inactive)
GI50 (NCI-H226): 37.7 µM (inactive)
GI50 (Malme-3M): 9.68 µM (inactive)
GI50 (NCI-H23): 21.9 µM (inactive)
GI50 (A498): 44.2 µM (inactive)
GI50 (RPMI-8226): 15.3 µM (inactive)
GI50 (RXF 393): 18 µM (inactive)
GI50 (MDA-MB-435): 18.5 µM (inactive)
GI50 (786-0): 18.1 µM (inactive)
GI50 (HL-60): 18.6 µM (inactive)
GI50 (KM12): 24.2 µM (inactive)
GI50 (MDA-MB-231): 18.5 µM (inactive)
GI50 (ACHN): 19.5 µM (inactive)
GI50 (IGROV-1): 15.7 µM (inactive)
GI50 (PC-3): 18.8 µM (inactive)
GI50 (OVCAR-5): 23.1 µM (inactive)
GI50 (SNB-19): 24.6 µM (inactive)

Reference: ChEMBL document CHEMBL1201862, “PubChem BioAssay data set” (2004)
